Starred links: 1 amine or outer side, 2 acyl side, 3 side chain; linkers in the order of their positions; H or OH if unused. Residues, ends and D or L forms follow the SMILES beside them. Groups on a side chain read outwards from the residue. *: point of attachment. γGlu = O=C(O)[C@H](CCC(=O)[*:2])N[*:1]; Palmitoyl = CCCCCCCCCCCCCCCC(=O)*
Legend:
[1] = Solubility in buffer; settings: 80 mM ammonium bicarbonate buffer, pH 7.7, Solubility [mg/mL] 80 mM AmBicarb pH7.7, Table 2; 80 mM AmBicarb pH7.7
[2] = molecular target: GLP-1R (Homo sapiens, UniProt P43220); test: GLP-1 receptor-mediated cAMP induction, luciferase reporter gene antagonism assay; format: cell-based; set-up: host or cells: HEK 293; settings: Table 2; C16 linker variants of 9-40amide Jant4 K40[X]; antagonism of 0.05 nM GLP-1, HEK 293 cells; read-out: Biactivity IC50
Chain of GLP-1R (P43220 24-463): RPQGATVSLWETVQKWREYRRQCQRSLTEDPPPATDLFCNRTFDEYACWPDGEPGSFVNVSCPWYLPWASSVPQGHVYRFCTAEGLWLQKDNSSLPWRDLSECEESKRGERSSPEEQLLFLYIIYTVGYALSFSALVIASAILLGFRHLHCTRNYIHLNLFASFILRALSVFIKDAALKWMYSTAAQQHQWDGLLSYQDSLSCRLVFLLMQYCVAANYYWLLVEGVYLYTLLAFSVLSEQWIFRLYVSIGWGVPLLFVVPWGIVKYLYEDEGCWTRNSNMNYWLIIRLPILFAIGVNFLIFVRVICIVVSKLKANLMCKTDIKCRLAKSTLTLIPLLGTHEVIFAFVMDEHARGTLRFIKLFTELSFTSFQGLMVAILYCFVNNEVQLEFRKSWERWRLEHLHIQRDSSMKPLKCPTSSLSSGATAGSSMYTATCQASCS
Experimental: GLP-1 Receptor-Mediated cAMP Induction The ability of peptides to stimulate or block cAMP induction at the GLP-1 receptor was examined by a luciferase-based reporter gene assay. Cotransfection of HEK 293 cells with the human GLP-1 receptor (Open Biosystems) and a cAMPinducible (cAMPresponsive element) luciferase gene constituted the cellular construct where receptor activation could be measured. Bioassays were performed by first serum depriving the cells for 16 h in 0.25% bovine growth serum (HyClone)-supplemented Dulbecco's modified Eagle's medium (Invitrogen) and then adding serial dilutions of the peptides over the appropriate concentration ranges in 96-well poly-D-lysine-coated plates (BD Biosciences). For antagonism assays, a constant concentration of GLP-1 (0.05 nM) was added to the assay plate after the diluted peptides. Incubation continued for 5 h at 37° C., 5% CO2 and was followed by the addition of an equivalent volume (100 μL) of LucLite luminescence substrate reagent (Perkin-Elmer). MicroBeta 1450 liquid scintillation counting (Perkin-Elmer) quantified the luminescence signal in counts per second (cps) after shaking the plate at 600 rpm for 3 min. Data was plotted using Origin software (OriginLab) and the effective concentration 50 (EC50) or inhibitory concentration 50 (IC50) was determined by sigmoidal fitting. Potency was determined by comparative analysis of relative EC50 or IC50 values. Each experiment was repeated at least three times with each sample assayed in duplicate.

SMILES | solubility [1] | IC50 [2]
CCCCCCCCCCCCCCCC(=O)N[C@@H](CCC(=O)NCCCC[C@H](NC(=O)[C@H](CO)NC(=O)[C@@H]1CCCN1C(=O)[C@@H]1CCCN1C(=O)[C@@H]1CCCN1C(=O)[C@H](C)NC(=O)CNC(=O)[C@H](CO)NC(=O)[C@H](CO)NC(=O)[C@@H]1CCCN1C(=O)CNC(=O)CNC(=O)[C@H](CCCCN)NC(=O)[C@@H](NC(=O)[C@H](CC(C)C)NC(=O)[C@H](Cc1c[nH]c2ccccc12)NC(=O)[C@H](C)NC(=O)[C@@H](NC(=O)[C@H](Cc1ccccc1)NC(=O)[C@H](CCC(=O)O)NC(=O)[C@H](CCCNC(=N)N)NC(=O)[C@@H](NC(=O)[C@H](C)NC(=O)[C@H](CCC(N)=O)NC(=O)[C@H](CCC(=O)O)NC(=O)[C@H](CCC(=O)O)NC(=O)[C@H](CC(C)C)NC(=O)[C@H](Cc1ccc(O)cc1)NC(=O)[C@H](CO)NC(=O)[C@H](CO)NC(=O)[C@@H](NC(=O)[C@@H](N)CC(=O)O)C(C)C)C(C)C)[C@@H](C)CC)C(C)C)C(N)=O)C(=O)O [compound 52] (H-DVSSYLEEQAVREFIAWLVKGGPSSGAPPPSK([γGlu-Palmitoyl])-NH2; N-terminus assumed) | > 20 mg/mL | 12 nM
CCCCCCCCCCCCCCCC(=O)N[C@@H](CCC(=O)N[C@@H](CCC(=O)NCCCC[C@H](NC(=O)[C@H](CO)NC(=O)[C@@H]1CCCN1C(=O)[C@@H]1CCCN1C(=O)[C@@H]1CCCN1C(=O)[C@H](C)NC(=O)CNC(=O)[C@H](CO)NC(=O)[C@H](CO)NC(=O)[C@@H]1CCCN1C(=O)CNC(=O)CNC(=O)[C@H](CCCCN)NC(=O)[C@@H](NC(=O)[C@H](CC(C)C)NC(=O)[C@H](Cc1c[nH]c2ccccc12)NC(=O)[C@H](C)NC(=O)[C@@H](NC(=O)[C@H](Cc1ccccc1)NC(=O)[C@H](CCC(=O)O)NC(=O)[C@H](CCCNC(=N)N)NC(=O)[C@@H](NC(=O)[C@H](C)NC(=O)[C@H](CCC(N)=O)NC(=O)[C@H](CCC(=O)O)NC(=O)[C@H](CCC(=O)O)NC(=O)[C@H](CC(C)C)NC(=O)[C@H](Cc1ccc(O)cc1)NC(=O)[C@H](CO)NC(=O)[C@H](CO)NC(=O)[C@@H](NC(=O)[C@@H](N)CC(=O)O)C(C)C)C(C)C)[C@@H](C)CC)C(C)C)C(N)=O)C(=O)O)C(=O)O [compound 53] (H-DVSSYLEEQAVREFIAWLVKGGPSSGAPPPSK([γGlu-γGlu-Palmitoyl])-NH2) | > 20 mg/mL | 13 nM
CCCCCCCCCCCCCCCC(=O)N[C@@H](CCC(=O)N[C@@H](CCC(=O)N[C@@H](CCC(=O)N[C@@H](CCC(=O)NCCCC[C@H](NC(=O)[C@H](CO)NC(=O)[C@@H]1CCCN1C(=O)[C@@H]1CCCN1C(=O)[C@@H]1CCCN1C(=O)[C@H](C)NC(=O)CNC(=O)[C@H](CO)NC(=O)[C@H](CO)NC(=O)[C@@H]1CCCN1C(=O)CNC(=O)CNC(=O)[C@H](CCCCN)NC(=O)[C@@H](NC(=O)[C@H](CC(C)C)NC(=O)[C@H](Cc1c[nH]c2ccccc12)NC(=O)[C@H](C)NC(=O)[C@@H](NC(=O)[C@H](Cc1ccccc1)NC(=O)[C@H](CCC(=O)O)NC(=O)[C@H](CCCNC(=N)N)NC(=O)[C@@H](NC(=O)[C@H](C)NC(=O)[C@H](CCC(N)=O)NC(=O)[C@H](CCC(=O)O)NC(=O)[C@H](CCC(=O)O)NC(=O)[C@H](CC(C)C)NC(=O)[C@H](Cc1ccc(O)cc1)NC(=O)[C@H](CO)NC(=O)[C@H](CO)NC(=O)[C@@H](NC(=O)[C@@H](N)CC(=O)O)C(C)C)C(C)C)[C@@H](C)CC)C(C)C)C(N)=O)C(=O)O)C(=O)O)C(=O)O)C(=O)O [compound 54] (H-DVSSYLEEQAVREFIAWLVKGGPSSGAPPPSK([γGlu-γGlu-γGlu-γGlu-Palmitoyl])-NH2) | > 20 mg/mL | 21 nM
